# Results reported in US7378387B2, “Method of suppressing immune response by reducing intracellular content of glutathione in macrophages and monocytes” (Ajinomoto Co., Inc., priority 1997, dated 2008).
# Where a name gives a salt, the structure may show the parent alone.
# Assays:
# IL-12 [1] = assay: IL-12 production by MΦ induced by intraperitoneal injection of substances (Example 7); format: in vivo, mouse; details: MΦ induced by intraperitoneal injection of the substance; stimulation with LPS and IFNγ
# Protocol: (§1) The amount of IL-12 was determined through bioassay using cells of human T cell strain 2D6 (J. Leukocyte Biology, vol. 61, p. 346, 1997).
# (§2) 2D6 cells which had been incubated in an RPMI 1640 medium containing 500 pg/ml of recombinant human IL-12, 50 μM of 2-mercaptoethanol and 10% FCS (fetal calf serum) were moved to a tube, and centrifugally washed three times with the above-mentioned medium without IL-12 and cell density was adjusted to 1×10^5/ml. The cell suspension was added in an amount of 100 μl each to a 96-well flat bottom plate containing a sample serially diluted in advance with an RPMI 1640 medium containing 50 μM of 2-mercaptoethanol and 10% FCS in an amount of 100 μl each. Subsequently, the mixture was charged into a 5% […] incubator of 37° C., and incubated for 48 hours. For final 6 hours, ^3H-TdR was pulsed (a substance adjusted to 370 kBq/ml in an RPMI 1640 medium containing 50 μM of 2-mercaptoethanol and 10% FCS was added in an amount of 50 μl each). The cells a harvested, and the radioactivity was measured using a β counter (Matrix 96, supplied by Packard).
# It was examined whether there is a difference in the IL-12 production between LNT-induced MΦ and LPS-induced MΦ. […] Next, the same analysis was conducted using MΦ induced by intraperitoneally injecting substances for changing the GSH content in cells.
# IL-12 [2] = assay: Suppression of IL-12 production of reductive MΦ by DEM or IL-4 (Example 7); format: cell-based, mouse
# Protocol: as §1, §2
# As mentioned above, IL-12 was produced only in reductive MΦ having the high GSH content in cells. It was examined whether this production is suppressed by converting MΦ to oxidative MΦ. That is, it was analyzed whether the IL-12 production is suppressed by exposing lentinan-induced MΦ with DEM.
# (§3) IL-4 is a cytokine which acts on MΦ suppressively. IL-4 is considered to have an opposite function to IL-12 in the Th1/Th2 balance as well. Accordingly, it was examined whether IL-4 acts suppressively on the IL-12 production by reductive MΦ.
# [3] = system: peritoneal exudate cells (macrophages); assay: Induction of oxidative or reductive macrophages by administration, monochlorobimane/ACAS (Example 9); format: in vivo, DBA/2 mice; details: Day 1 and Day 2, cells harvested 20 hours later; 20 μg (NAC-OMe)2 or (NAC)2, 10 μg acetylgliotoxin, 2 mg NAC intraperitoneally; 40 μg dexamethasone subcutaneously
# Protocol: (§4) This was clarified by harvesting peritoneal exudate cells 20 hours after the completion of the administration, adhering the cells to the plastic surface, then reacting the cells with 10 μM of monochlorobimane at 37° C. for 30 minutes, and analyzing the reaction product with ACAS. The increase in the amounts of oxidative macrophages can easily be determined visually from the fact that almost no reaction product with monochlorobimane is observed, namely, a gray or blue image is provided, and the increase in the amounts of reductive macrophages from the fact that a red or yellow image is provided respectively. […] Meanwhile, the same examination was conducted by harvesting peritoneal exudate cells after 20 hours of the administration of 2 mg of N-acetylcystine (NAC).
# NO [4] = assay: NO production from macrophages induced through administration (Example 9, Table 1); format: in vivo, DBA/2 mice; details: LPS 100 ng/ml, IFNγ 100 units/ml
# Protocol: (§5) A stimulator was added to 1×10^5 MΦ, and the incubation was conducted at 37° C. for 2 days in a CO2 incubator. After the completion of the centrifugation, the culture supernatant was collected.
# (§6) One hundred microliters of a Griess-Romijn reagent (supplied by Waco Pure Chemical Industries, Ltd.) adjusted to a concentration of 50 mg/ml in distilled water were added to 100 μl of the culture supernatant, and the reaction was conducted at room temperature for 15 minutes. After the completion of reaction, an absorbance of 540 nm was measured. NaNO2 was used as a standard.
# as §4
# (§7) Thus, the peritoneal exudate adherent cells were incubated in the following manner, and the amounts of NO and IL-12 produced in the culture supernatant were measured. With respect to the amount of IL-6, the amount of IL-6 produced spontaneously in the absence of a stimulator was measured.
# (§8) Cells: The peritoneal exudate adherent cells obtained by the stimulation, namely, the macrophages were added to a 96-well microplate in an amount of 1×10^5 cells/200 μl each.
# (§9) Medium: Phenol red-free RPMI 1640: 200 μl/well
# (§10) LPS: Lipopolysaccharide (made by Sigma Co.) (origin: E. coli) 100 ng/ml
# IL-6 [5] = assay: IL-6 production from macrophages induced through administration (Example 9, Table 1); format: in vivo, DBA/2 mice; design: concentration or dose not given beside the values; details: produced spontaneously in the absence of a stimulator
# Protocol: (§11) A stimulator was added to 1×10^6 MΦ, and the incubation was conducted at 37° C. for 2 days in a CO2 incubator. After centrifugation, the culture supernatant was collected.
# (§12) The amount of IL-6 was determined using IL-6 dependent mouse hybridoma MH60 cells (J. Eur. Immunol., vol. 18, p. 951, 1988). One hundred microliters of the culture supernatant were added to 100 μl of the MH60 cell suspension adjusted to 1×10^5 cells/ml in a 10% FCS-containing RPMI medium, and the mixed solution was incubated at 37° C. for 2 days in a CO2 incubator. Subsequently, 10 μl of MTT (supplied by Sigma Co.) solution adjusted to a concentration of 5 mg/ml in the same medium were added thereto, and the reaction was conducted at 37° C. for 5 hours. After the completion of the reaction, the centrifugation was conducted. The supernatant (160 μl) was removed, and 100 μl of a mixture of hydrochloric acid and propanol were added to the residue. The suspension was conducted using a pipetman to dissolve the cells. Immediately after the dissolution, an absorbance of 570 nm was measured with an immunometer (supplied by Bio-Rad).
# as §4, §7, §8, §9
# IL-12 [6] = assay: IL-12 production from macrophages induced through administration (Example 9, Table 1); format: in vivo, DBA/2 mice; details: LPS 100 ng/ml, IFNγ 100 units/ml
# Protocol: as §1, §2
# The increase in the amounts of oxidative macrophages can easily be determined visually from the fact that almost no reaction product with monochlorobimane is observed, namely, a gray or blue image is provided, and the increase in the amounts of reductive macrophages from the fact that a red or yellow image is provided respectively. […] Meanwhile, the same examination was conducted by harvesting peritoneal exudate cells after 20 hours of the administration of 2 mg of N-acetylcystine (NAC).
# as §7, §8, §9, §10
# [7] = system: reductive glutathione in MΦ; assay: Content of reductive glutathione in MΦ treated with IL-4, ACAS image analysis (Example 7); format: cell-based, mouse; details: image analysis by ACAS
# Protocol: Three-hundred microliters of a cell suspension adjusted concentration of 3×10^5 cells/ml in an RPMI 1640 medium (phenol red-free) were charged into a chambered coverglass (#136439, supplied by Nunc), and incubated at 37° C. for 2 hours using a CO2 incubator. The culture solution was washed with the medium, and 300 μl of monochlorobimane (supplied by Molecular Plobe) adjusted to 10 μM in the same medium were added thereto. The mixture was charged into a CO2 incubator of 37° C., and the reaction was conducted for 30 minutes. The fluorescent intensity was measured with ACAS. In ACAS, a UV laser was used.
# as §3
# NO [8] = assay: NO production of MΦ pretreated with IL-4 (Example 7); format: cell-based, mouse
# Protocol: as §5, §6
# Reductive MΦ increases the NO production by the IFNγ stimulation in comparison with oxidative MΦ, and rather suppresses the IL-6 production. IFNγ is known to be a cytokine produced from Th1 cells. […] Further, MΦ of which the GSH content in cells was increased by the stimulation with GSH-OEt and MΦ of which the GSH content in cells was decreased by the stimulation with DEM were pretreated with IL-4, and IFNγ thereafter and LPS stimulation was carried out to induce NO production.
# IL-6 [9] = assay: IL-6 production of MΦ pretreated with IL-4 (Example 7); format: cell-based, mouse
# Protocol: as §11, §12
# Further, MΦ of which the GSH content in cells was increased by the stimulation with GSH-OEt and MΦ of which the GSH content in cells was decreased by the stimulation of DEM were pretreated with IL-4, and IFNγ was exposed thereon to induce the IL-6 production. […]
molecule,measurement,setting,value
"CCOC(=O)/C=C\C(=O)OCC [DEM, diethyl maleate, reference compound]",IL-12 production,IL-12 [1],produced only in MΦ derived from GSH-OEt administered mice
same,IL-12 production from lentinan-induced MΦ with the addition of DEM,IL-12 [2]; without DEM 828 pg/ml,0 pg/mL
CC(=O)O[C@H]1C=CC=C2C[C@]34SS[C@](CO)(C(=O)N3[C@@H]21)N(C)C4=O [Acetylgliotoxin],"type of macrophages induced (monochlorobimane, ACAS)",[3],Oxidative macrophages were induced
same,"NO, amount produced relative to that of control group",NO [4],22%
same,"IL-6, amount produced relative to that of control group",IL-6 [5],450%
same,"IL-12, amount produced relative to that of control group",IL-12 [6],14%
"C[C@@H]1C[C@H]2[C@@H]3CCC4=CC(=O)C=C[C@]4(C)[C@@]3(F)[C@@H](O)C[C@]2(C)[C@@]1(O)C(=O)CO [Dexamethasone, dexamethasone, reference compound]","NO, amount produced relative to that of control group",NO [4],45%
same,"IL-6, amount produced relative to that of control group",IL-6 [5],1020%
same,"IL-12, amount produced relative to that of control group",IL-12 [6],5%
"IL-4: interleukin 4, a cytokine which acts on MΦ suppressively; typical Th2 cytokine (protein, UniProt P05112 25-153, looked up) Interleukin-4: HKCDITLQEIIKTLNSLTEQKTLCTELTVTDIFAASKNTTEKETFCRAATVLRQFYSHHEKDTRCLGATAQQFHRHKQLIRFLKRLDRNLWGLAGLNSCPVKEANQSTLENFLERLKTIMREKYSKCSS",IL-12 production by GSH-OEt administered mouse MΦ after pretreatment with IL-4,IL-12 [2]; without IL-4 490 pg/ml,258 pg/mL
same,IL-12 production by LNT-induced MΦ after pretreatment with IL-4,"IL-12 [2]; without IL-4 1,580 pg/ml",370 pg/mL
same,content of reductive glutathione in MΦ,[7],markedly decreases
same,NO production of GSH-OEt-stimulated and DEM-stimulated MΦ pretreated with IL-4,"NO [8]; IFNγ and LPS stimulation, both subsets of MΦ",remarkably suppressed
same,IFNγ NO production from MΦ pretreated with IL-4 in comparison with untreated MΦ,NO [8]; IFNγ stimulation,significantly suppressed
same,IL-6 production of GSH-OEt-stimulated and DEM-stimulated MΦ pretreated with IL-4,"IL-6 [9]; IFNγ exposure, in comparison with IL-4-untreated MΦ",increased
same,IL-6 production with IFNγ after pretreatment with IL-4,"IL-6 [9]; resident MΦ, LPS-induced MΦ and LNT-induced MΦ",markedly increased
